The values below come from ChEMBL document CHEMBL3217746, “Edaravone containing isoindoline nitroxides for the potential treatment of cardiovascular ischaemia” (Medchemcomm, 2011).

Activity calls are given as the source filed them. No cut-off for these calls is given here.

For orientation: inhibition means how much of the control response was suppressed. As usually defined, the Cmax is the highest concentration seen after dosing.

The subject of data set [1] is H9c2. Description: Cardioprotective activity in rat H9c2 cells hypoxia-induced ischaemic model assessed as decrease in cell death at 1 to 100 uM by propidium iodide exclusion assay. It is filed as functional, cell-based.
Data set [2] relates to H9c2. Description: Cardioprotective activity in rat H9c2 cells hypoxia-induced ischaemic model assessed as maximal decrease in cell death at 100 uM by propidium iodide exclusion assay. The data set is classed as functional, cell-based.
Data set [3] in a line: Peak plasma concentration in rat at 1.5 mg/kg, iv bolus dose. It is filed as ADME, organism-based. On the set-up: dose 1.5 mg/kg, route intravenous.
The test system of a further data set is Rattus norvegicus. Description: Cardioprotective activity against iv dosed ischaemic brain injury rat model assessed as effective dose after 30 mins. It is filed as functional.
In data set [4] the test system is H9c2. Description: Cardioprotective activity in rat H9c2 cells hypoxia-induced ischaemic model assessed as maximal decrease in cell death at 10 uM by propidium iodide exclusion assay. It is filed as functional.

For the compound `CC1=NN(c2ccc3c(c2)C(C)(C)N([O])C3(C)C)C(=O)C1`, the inhibition entry in the data set with H9c2 [1] was “Active”. In addition, the inhibition in the data set with H9c2 [2] is 85.5%. Take `CON1C(C)(C)c2ccc(N3N=C(C)CC3=O)cc2C1(C)C`: the inhibition entry in the data set on H9c2 [1] was “Active”. In the case of `CC1=NN(c2ccccc2)C(=O)C1` [EDARAVONE], the inhibition result with H9c2 [1] was “Active”. In data set [3], the peak level (Cmax) was 20 µM. Further, in the data set on Rattus norvegicus, the ED was 3 mg/kg.

Turning to `OC[C@H]1O[C@@H](n2cnc3c(NC4CCCC4)ncnc32)[C@H](O)[C@@H]1O` [N6-CYCLOPENTYLADENOSINE], the inhibition at 10 µM in the data set on H9c2 [4] turned out to be 75.4%.
